Here are results for 1 substance from patent US9169519B2, “SUMO as a marker of cancer development and target for cancer therapy” (Duke University, priority 2010, dated 2015).

In the assay the test system is F98 rat glioblastoma cells. Kind of assay: 3H-thymidine incorporation into DNA (DNA synthesis), with or without radiation. Format: cell-based. Particulars: 100 nM 4-HT versus vehicle, no radiation (FIG. 6B). As to the method:
To investigate whether DNA synthesis of glioblastoma cells is modified by SUMO conjugation, the effects of suppressing SUMO conjugation on the incorporation of ^3H-thymidine into DNA was evaluated. SUMO conjugation was suppressed by blocking its expression using a miRNA approach. To avoid the risk of adaptive processes taking place in cells where SUMO expression had been silenced during the long selection process for stably transfected cells, a 4-hydroxy tamoxifen (4-HT)-inducible lentiviral system was used to express designed miRNAs (Callus et al., Cell Death Diff. 15: 213-219 (2008)). Briefly, the 4-HT inducible lentiviral system utilizes two constructs and the UAS/GAL4 system. […]
The effect of SUMO1/2/3 miRNA expression on radiation induced impairment of DNA synthesis was investigated by measuring the uptake of ^3H-thymidine. […] Irradiated cells were detached with trypsin-EDTA (Fisher Scientific), counted, re-suspended in culture medium with supplements described above, and re-plated in a 96-well plate at a density of 10,000 cells per well. […] Cells were harvested 24 hr later following detachment with trypsin-EDTA, collected on filter paper, dried overnight, and immersed in scintillation cocktail (ICN Biochemicals), and counted for 10 min in a liquid scintillation counter. […]

With 4-hydroxy tamoxifen [4-HT], the “3H-thymidine incorporation into DNA” value is reported as “did not produce any major change”.
